Where a name gives a salt, the structure may show the parent alone.
Target: T1, AR protein in VCaP cells (Homo sapiens, UniProt P10275)
T1 construct: endogenous in cells; host or cells: VCaP cells
T1 sequence (P10275 1-920): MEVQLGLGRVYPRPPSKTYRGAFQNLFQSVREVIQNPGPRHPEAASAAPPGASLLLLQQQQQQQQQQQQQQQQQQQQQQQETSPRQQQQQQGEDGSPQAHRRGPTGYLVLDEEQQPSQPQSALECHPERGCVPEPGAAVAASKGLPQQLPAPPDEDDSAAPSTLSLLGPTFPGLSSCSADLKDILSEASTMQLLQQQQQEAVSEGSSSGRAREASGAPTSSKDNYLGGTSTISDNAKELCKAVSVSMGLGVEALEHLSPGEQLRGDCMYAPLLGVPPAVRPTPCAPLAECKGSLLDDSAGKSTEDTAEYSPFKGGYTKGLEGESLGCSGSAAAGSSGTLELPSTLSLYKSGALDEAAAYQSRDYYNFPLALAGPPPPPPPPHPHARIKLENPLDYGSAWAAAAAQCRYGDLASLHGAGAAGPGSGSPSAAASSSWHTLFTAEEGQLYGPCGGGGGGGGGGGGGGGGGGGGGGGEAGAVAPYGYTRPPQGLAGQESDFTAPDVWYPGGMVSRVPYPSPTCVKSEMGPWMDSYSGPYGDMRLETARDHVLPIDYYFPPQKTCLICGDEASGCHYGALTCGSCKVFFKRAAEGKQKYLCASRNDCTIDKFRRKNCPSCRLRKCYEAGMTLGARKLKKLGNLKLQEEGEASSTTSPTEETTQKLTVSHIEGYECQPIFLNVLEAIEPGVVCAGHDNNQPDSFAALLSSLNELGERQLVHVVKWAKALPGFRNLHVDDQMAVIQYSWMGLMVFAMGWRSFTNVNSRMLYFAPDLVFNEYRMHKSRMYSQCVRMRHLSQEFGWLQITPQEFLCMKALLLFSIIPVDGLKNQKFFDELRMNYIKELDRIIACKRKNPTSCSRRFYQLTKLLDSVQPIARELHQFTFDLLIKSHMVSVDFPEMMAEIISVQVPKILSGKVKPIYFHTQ
Test: VCAP AR Degradation Assay
Assay type: cell-based
Conditions: 24 h, AR ELISA; for DC50: concentration at 50% of DMSO control (50% AR degradation); for Y: lowest measured AR level normalized to DMSO control
How it was run: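 VCaP cells in DMEM with 8% FBS were treated 24 h at 37° C with a 10-point 1:3 series (top final 5 μM; 0.1% DMSO control). AR in lysates was measured by sandwich ELISA, normalized to DMSO as percent of control; DC50, EC50 and Ymin came from a four-parameter logistic fit.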

Row | Structure (SMILES) | DC50 [nM] | Y
1 | C[C@@H]1C[C@H](OCC[C@H]2CC[C@H](N3C(=S)N(c4ccc(C#N)c(C(F)(F)F)c4)C(=O)C3(C)C)CC2)C[C@H](C)N1CC(=O)Nc1cccc(NC2CCC(=O)NC2=O)c1 (stereo partly drawn) [Cmpd 36, 2-((2R,4r,6S)-4-(2-((trans)-4-(3-(4-Cyano-3-(trifluoromethyl)phenyl)-5,5-dimethyl-4-oxo-2-thioxoimidazolidin-1-yl)cyclohexyl)ethoxy)-2,6-dimethylpiperidin-1-yl)-N-(3-((2,6-dioxopiperidin-3-yl)amino)phenyl)acetamide] | 10 to 100 | ** (15%<Y≤20%)
2 | C[C@@H]1CN(CCC[C@H]2CC[C@H](N3C(=S)N(c4ccc(C#N)c(C(F)(F)F)c4)C(=O)C3(C)C)CC2)C[C@H](C)N1CC(=O)Nc1cc(F)cc(NC2CCC(=O)NC2=O)c1 (stereo partly drawn) [Cmpd 38, 2-((2R,6S)-4-(3-((trans)-4-(3-(4-Cyano-3-(trifluoromethyl)phenyl)-5,5-dimethyl-4-oxo-2-thioxoimidazolidin-1-yl)cyclohexyl)propyl)-2,6-dimethylpiperazin-1-yl)-N-(3-((2,6-dioxopiperidin-3-yl)amino)-5-fluorophenyl)acetamide] | 5 to 10 | * (0<Y≤15%)
3 | C[C@@H]1CN(CCO[C@H]2CC[C@H](N3C(=S)N(c4ccc(C#N)c(S(F)(F)(F)(F)F)c4)C(=O)C3(C)C)CC2)C[C@H](C)N1CC(=O)Nc1cccc(NC2CCC(=O)NC2=O)c1 (stereo partly drawn) [Cmpd 7, 2-((2R,6S)-4-(2-((trans-4-(3-(4-Cyano-3-(pentafluoro-λ^6-sulfaneyl)phenyl)-5,5-dimethyl-4-oxo-2-thioxoimidazolidin-1-yl)cyclohexyl)oxy)ethyl)-2,6-dimethylpiperazin-1-yl)-N-(3-((2,6-dioxopiperidin-3-yl)amino)phenyl)acetamide hydrochloride] | 10 to 100 | *** (25%<Y<50%)
4 | C[C@@H]1CN(CCC[C@H]2CC[C@H](N3C(=S)N(c4ccc(C#N)c(C(F)(F)F)c4)C(=O)C3(C)C)CC2)C[C@H](C)N1CC(=O)Nc1cccc(NC2CCC(=O)NC2=O)c1 (stereo partly drawn) [Cmpd 2, 2-((2R,6S)-4-(3-(trans-4-(3-(4-Cyano-3-(trifluoromethyl)phenyl)-5,5-dimethyl-4-oxo-2-thioxoimidazolidin-1-yl)cyclohexyl)propyl)-2,6-dimethylpiperazin-1-yl)-N-(3-((2,6-dioxopiperidin-3-yl)amino)phenyl)acetamide] | 10 to 100 | * (0<Y≤15%)
5 | CC1(C)C(=O)N(c2cnc(C#N)c(C(F)(F)F)c2)C(=S)N1[C@H]1CC[C@H](OCCN2CCN(CC(=O)Nc3cc(Cl)cc(NC4CCC(=O)NC4=O)c3)[C@@H](C(F)(F)F)C2)CC1 (stereo partly drawn) [Cmpd 26, N-(3-Chloro-5-((2,6-dioxopiperidin-3-yl)amino)phenyl)-2-((R)-4-(2-(((trans)-4-(3-(6-cyano-5-(trifluoromethyl)pyridin-3-yl)-5,5-dimethyl-4-oxo-2-thioxoimidazolidin-1-yl)cyclohexyl)oxy)ethyl)-2-(trifluoromethyl)piperazin-1-yl)acetamide] | 5 to 10 | * (0<Y≤15%)
6 | C[C@@H]1CN(CCO[C@H]2CC[C@H](N3C(=S)N(c4ccc(C#N)c(C(F)(F)F)c4)C(=O)C3(C)C)CC2)C[C@H](C)N1CC(=O)Nc1cccc(N[C@@H]2CCC(=O)NC2=O)c1 [Cmpd 3, 2-((2R,6S)-4-(2-((trans-4-(3-(4-Cyano-3-(trifluoromethyl)phenyl)-5,5-dimethyl-4-oxo-2-thioxoimidazolidin-1-yl)cyclohexyl)oxy)ethyl)-2,6-dimethylpiperazin-1-yl)-N-(3-(((R)-2,6-dioxopiperidin-3-yl)amino)phenyl)acetamide hydrochloride] | 5 to 10 | *** (25%<Y<50%)

The remaining lines, values ahead:

Row | DC50 [nM] | Y | Structure (SMILES)
7 | 10 to 100 | * (0<Y≤15%) | C[C@@H]1C[C@H](OCC[C@H]2CC[C@H](N3C(=S)N(c4cnc(C#N)c(C(F)(F)F)c4)C(=O)C3(C)C)CC2)C[C@H](C)N1CC(=O)Nc1cccc(NC2CCC(=O)NC2=O)c1 (stereo partly drawn) [Cmpd 35, 2-((2R,4r,6S)-4-(2-((trans)-4-(3-(6-Cyano-5-(trifluoromethyl)pyridin-3-yl)-5,5-dimethyl-4-oxo-2-thioxoimidazolidin-1-yl)cyclohexyl)ethoxy)-2,6-dimethylpiperidin-1-yl)-N-(3-((2,6-dioxopiperidin-3-yl)amino)phenyl)acetamide hydrochloride]
8 | ≤ 5 | * (0<Y≤15%) | CC1(C)C(=O)N(c2cnc(C#N)c(C(F)(F)F)c2)C(=S)N1[C@H]1CC[C@H](OCCC2CCN(CC(=O)Nc3cccc(NC4CCC(=O)NC4=O)c3)CC2(F)F)CC1 (stereo partly drawn) [Cmpd 46, 2-(4-(2-(((trans)-4-(3-(6-Cyano-5-(trifluoromethyl)pyridin-3-yl)-5,5-dimethyl-4-oxo-2-thioxoimidazolidin-1-yl)cyclohexyl)oxy)ethyl)-3,3-difluoropiperidin-1-yl)-N-(3-((2,6-dioxopiperidin-3-yl)amino)phenyl)acetamide hydrochloride]
9 | ≤ 5 | *** (25%<Y<50%) | C[C@@H]1CN(CCO[C@H]2CC[C@H](N3C(=S)N(c4cnc(C#N)c(C(F)(F)F)c4)C(=O)C3(C)C)CC2)C[C@H](C)N1CC(=O)Nc1cccc(NC2CCC(=O)NC2=O)c1 (stereo partly drawn) [Cmpd 5, 2-((2R,6S)-4-(2-((trans-4-(3-(6-Cyano-5-(trifluoromethyl)pyridin-3-yl)-5,5-dimethyl-4-oxo-2-thioxoimidazolidin-1-yl)cyclohexyl)oxy)ethyl)-2,6-dimethylpiperazin-1-yl)-N-(3-((2,6-dioxopiperidin-3-yl)amino)phenyl)acetamide hydrochloride]
10 | < 1000 | * (0<Y≤15%) | C[C@@H]1CN(CCO[C@H]2CC[C@H](N3C(=S)N(c4cnc(C#N)c(C(F)(F)F)c4)C(=O)C3(C)C)CC2)C[C@H](C)N1CC(=O)Nc1cccc(N[C@H]2CCC(=O)NC2=O)c1 [Cmpd 47, 2-((2R,6S)-4-(2-(((trans)-4-(3-(6-Cyano-5-(trifluoromethyl)pyridin-3-yl)-5,5-dimethyl-4-oxo-2-thioxoimidazolidin-1-yl)cyclohexyl)oxy)ethyl)-2,6-dimethylpiperazin-1-yl)-N-(3-(((S)-2,6-dioxopiperidin-3-yl)amino)phenyl)acetamide]
